Assay results published in ChEMBL document CHEMBL1201862, “PubChem BioAssay data set” (2004).
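Tested at 5 concentrations; 48 h exposure; 96-well plates; endpoints linearly interpolated, else capped at highest concentration. At the GI50, growth is halved.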 The source made the active and inactive calls. Cut-off read from the data, not from the text of the source: active = GI50 up to about 1.1 µM and inactive = higher.

Experiments:
Experiment in all cases: NCI-60 cell line screen, 48 h
PC-3 = system: PC-3
TK-10 = system: TK-10
SNB-19 = system: SNB-19
EKVX = system: EKVX
OVCAR-3 = system: OVCAR-3
LOX IMVI = system: LOX IMVI
NCI/ADR-RES = system: NCI/ADR-RES
HCT-116 = system: HCT-116
CAKI-1 = system: CAKI-1
SN12C = system: SN12C
KM12 = system: KM12
OVCAR-8 = system: OVCAR-8
HL-60 = system: HL-60
OVCAR-4 = system: OVCAR-4
HOP-62 = system: HOP-62
ACHN = system: ACHN
OVCAR-5 = system: OVCAR-5
MCF7 = system: MCF7
NCI-H23 = system: NCI-H23
UO-31 = system: UO-31
SF-268 = system: SF-268
HCC 2998 = system: HCC 2998
UACC-62 = system: UACC-62
CCRF-CEM = system: CCRF-CEM
HOP-92 = system: HOP-92
NCI-H460 = system: NCI-H460
SNB-75 = system: SNB-75
NCI-H226 = system: NCI-H226
NCI-H522 = system: NCI-H522
M14 = system: M14
RPMI-8226 = system: RPMI-8226
SK-OV-3 = system: SK-OV-3
DU-145 = system: DU-145
IGROV-1 = system: IGROV-1
MDA-N = system: MDA-N
K562 = system: K562
BT-549 = system: BT-549
U-251 = system: U-251
MDA-MB-435 = system: MDA-MB-435
HCT-15 = system: HCT-15
SF-539 = system: SF-539
T47D = system: T47D
SK-MEL-5 = system: SK-MEL-5
MOLT-4 = system: MOLT-4
Hs-578T = system: Hs-578T
A498 = system: A498
HT-29 = system: HT-29
MDA-MB-231 = system: MDA-MB-231
SW-620 = system: SW-620
SK-MEL-2 = system: SK-MEL-2
SK-MEL-28 = system: SK-MEL-28
A549 = system: A549
COLO 205 = system: COLO 205
786-0 = system: 786-0
UACC-257 = system: UACC-257
SF-295 = system: SF-295
RXF 393 = system: RXF 393
SR = system: SR

In the case of `OC1(c2ccc(Cl)cc2)c2ccccc2-c2nc3ccccc3n21` (stereo not drawn), the GI50 (PC-3) is reported as 44.3 µM (inactive), the GI50 (TK-10) is reported as > 100 µM (inactive) and the GI50 (SNB-19) is reported as 51.6 µM (inactive). The GI50 (EKVX) was 84.7 µM (inactive), the GI50 (OVCAR-3) was 48.4 µM (inactive) and the GI50 (LOX IMVI) was > 100 µM (inactive). The GI50 (NCI/ADR-RES) was 67.1 µM (inactive), the GI50 (HCT-116) was 90.4 µM (inactive) and the GI50 (CAKI-1) was > 100 µM (inactive). The GI50 (SN12C) was > 100 µM (inactive), the GI50 (KM12) was > 100 µM (inactive) and the GI50 (OVCAR-8) was 82.8 µM (inactive). The GI50 (HL-60) was 58.9 µM (inactive), the GI50 (OVCAR-4) was > 100 µM (inactive) and the GI50 (HOP-62) was 37.8 µM (inactive). For the same molecule, the GI50 (ACHN) was > 100 µM (inactive), the GI50 (OVCAR-5) was > 100 µM (inactive) and the GI50 (MCF7) was 95.3 µM (inactive). For the same molecule, the GI50 (NCI-H23) was 89.3 µM (inactive), the GI50 (UO-31) was > 100 µM (inactive) and the GI50 (SF-268) was > 100 µM (inactive). For the same molecule, the GI50 (HCC 2998) was 74 µM (inactive), the GI50 (UACC-62) was > 100 µM (inactive) and the GI50 (CCRF-CEM) was > 100 µM (inactive). For the same molecule, the GI50 (HOP-92) was > 100 µM (inactive), the GI50 (NCI-H460) was 65.8 µM (inactive) and the GI50 (SNB-75) was > 100 µM (inactive). For the same molecule, the GI50 (NCI-H226) was 45.9 µM (inactive), the GI50 (NCI-H522) was 66.8 µM (inactive) and the GI50 (M14) was > 100 µM (inactive). The GI50 (RPMI-8226) was 49.3 µM (inactive), the GI50 (SK-OV-3) was 49 µM (inactive) and the GI50 (DU-145) was 79.4 µM (inactive). For the same molecule, the GI50 (IGROV-1) was 73.5 µM (inactive), the GI50 (MDA-N) was > 100 µM (inactive) and the GI50 (K562) was > 100 µM (inactive). The GI50 (BT-549) was > 100 µM (inactive), the GI50 (U-251) was > 100 µM (inactive) and the GI50 (MDA-MB-435) was > 100 µM (inactive). For the same molecule, the GI50 (HCT-15) was greater than 100 µM, the GI50 (SF-539) was > 100 µM (inactive) and the GI50 (T47D) was > 100 µM (inactive). For the same molecule, the GI50 (SK-MEL-5) was > 100 µM (inactive), the GI50 (MOLT-4) was > 100 µM (inactive) and the GI50 (Hs-578T) was > 100 µM (inactive). The GI50 (A498) was > 100 µM (inactive), the GI50 (HT-29) was 72.6 µM (inactive) and the GI50 (MDA-MB-231) was > 100 µM (inactive). The GI50 (SW-620) was > 100 µM (inactive), the GI50 (SK-MEL-2) was 39.3 µM (inactive) and the GI50 (SK-MEL-28) was > 100 µM (inactive). For the same molecule, the GI50 (A549) was 52.7 µM (inactive), the GI50 (COLO 205) was > 100 µM (inactive) and the GI50 (786-0) was 49.2 µM (inactive). For the same molecule, the GI50 (UACC-257) was > 100 µM (inactive), the GI50 (SF-295) was 97.9 µM (inactive) and the GI50 (RXF 393) was 29.2 µM (inactive). The GI50 (SR) was 74.5 µM (inactive).
